We go through 19 compounds from patent US12162858B2, “Quinoline derivatives as inhibitors of AXL/MER RTK and CSF1R” (QURIENT CO., LTD., priority 2018, dated 2024).

Each structure is given as a SMILES string. Some results are limits rather than exact numbers.

In one assay the target is CSF1R (Ba/F3 cells) (Homo sapiens, UniProt P07333). The experiment in a line: BaF3 viability assay, CSF1R-dependent cells. Type of assay: cell-based. Conditions: read-out: Cellular CSF1R activity by Ba/F3 assay (IC50). The source says: In this system, IL-3-dependent Ba/F3 cells are modified to express an activated recombinant kinase (in the present case Axl, Mer and CSF1R). Following removal of IL-3, the modified cells are dependent on the activity of the recombinant kinase for survival and proliferation. Inhibition of such kinase(s) through test compounds reduces survival and proliferation of the cells.
CSF1R (Ba/F3 cells), sequence (P07333 whole entry, change not shown): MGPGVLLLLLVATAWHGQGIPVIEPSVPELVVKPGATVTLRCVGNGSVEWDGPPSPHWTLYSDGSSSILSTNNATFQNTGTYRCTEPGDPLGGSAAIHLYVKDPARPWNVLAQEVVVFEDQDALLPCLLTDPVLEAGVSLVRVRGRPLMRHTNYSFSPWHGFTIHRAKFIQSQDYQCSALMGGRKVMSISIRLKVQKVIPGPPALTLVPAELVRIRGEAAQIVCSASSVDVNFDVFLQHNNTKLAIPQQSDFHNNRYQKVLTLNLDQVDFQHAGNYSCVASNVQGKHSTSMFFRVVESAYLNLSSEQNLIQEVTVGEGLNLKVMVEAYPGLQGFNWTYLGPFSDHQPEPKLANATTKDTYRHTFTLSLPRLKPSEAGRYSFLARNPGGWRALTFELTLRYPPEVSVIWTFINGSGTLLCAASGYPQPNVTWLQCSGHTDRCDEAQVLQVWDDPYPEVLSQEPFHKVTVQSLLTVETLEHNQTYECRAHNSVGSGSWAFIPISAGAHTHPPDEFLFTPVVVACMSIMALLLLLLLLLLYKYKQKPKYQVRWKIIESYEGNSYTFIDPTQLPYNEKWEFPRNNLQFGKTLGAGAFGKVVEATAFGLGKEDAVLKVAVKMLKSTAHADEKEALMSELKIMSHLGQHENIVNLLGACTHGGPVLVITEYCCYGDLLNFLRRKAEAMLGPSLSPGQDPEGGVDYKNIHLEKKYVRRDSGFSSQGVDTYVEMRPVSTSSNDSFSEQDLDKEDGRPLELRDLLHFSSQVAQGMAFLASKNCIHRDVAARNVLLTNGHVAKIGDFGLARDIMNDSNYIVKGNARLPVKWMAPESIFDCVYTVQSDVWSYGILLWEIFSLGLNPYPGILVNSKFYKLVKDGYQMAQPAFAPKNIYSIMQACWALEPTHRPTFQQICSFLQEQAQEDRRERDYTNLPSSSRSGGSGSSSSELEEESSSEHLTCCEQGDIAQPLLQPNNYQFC
Cell lines were maintained in growth media (GM) consisting of RPMI 1640 supplemented with 10% FBS. Cells in logarithmic-phase growth were harvested and 5,000 cells were distributed into each well of a 384-well plate in 50 μl GM. Parental cells (or experimental assays where specified) were further supplemented with 2 ng/ml IL-3 to support cell growth and survival. Fifty nanoliters of the indicated reference standard or experimental compound were added to appropriate wells (in duplicate) and the cells were cultured for 48 h at 37° C./5% CO2. Viability was determined by adding 10 μl Cell Titer Glo and measuring luminescence, which is reported as relative light units (RLU) measured in counts per second. The following calculations and formulas are used for data analysis using GraphPad Prism software: The curve fitting was made using the Dose response curves-Inhibition.
Take `COc1cc2nccc(Oc3ccc(NC(=O)c4nn(C5CC5)cc4OCC(F)(F)F)nc3)c2cc1OC` [Compound 5]: the GI50 was below 1 µM.

For a further assay, the target named is CSF1R (Homo sapiens, UniProt P07333). The experiment in a line: Cellular CSF1R inhibition ELISA (p-CSF1R, M-CSF-induced) using THP-1 cells. Type of assay: cell-based.
CSF1R, sequence (P07333 20-972): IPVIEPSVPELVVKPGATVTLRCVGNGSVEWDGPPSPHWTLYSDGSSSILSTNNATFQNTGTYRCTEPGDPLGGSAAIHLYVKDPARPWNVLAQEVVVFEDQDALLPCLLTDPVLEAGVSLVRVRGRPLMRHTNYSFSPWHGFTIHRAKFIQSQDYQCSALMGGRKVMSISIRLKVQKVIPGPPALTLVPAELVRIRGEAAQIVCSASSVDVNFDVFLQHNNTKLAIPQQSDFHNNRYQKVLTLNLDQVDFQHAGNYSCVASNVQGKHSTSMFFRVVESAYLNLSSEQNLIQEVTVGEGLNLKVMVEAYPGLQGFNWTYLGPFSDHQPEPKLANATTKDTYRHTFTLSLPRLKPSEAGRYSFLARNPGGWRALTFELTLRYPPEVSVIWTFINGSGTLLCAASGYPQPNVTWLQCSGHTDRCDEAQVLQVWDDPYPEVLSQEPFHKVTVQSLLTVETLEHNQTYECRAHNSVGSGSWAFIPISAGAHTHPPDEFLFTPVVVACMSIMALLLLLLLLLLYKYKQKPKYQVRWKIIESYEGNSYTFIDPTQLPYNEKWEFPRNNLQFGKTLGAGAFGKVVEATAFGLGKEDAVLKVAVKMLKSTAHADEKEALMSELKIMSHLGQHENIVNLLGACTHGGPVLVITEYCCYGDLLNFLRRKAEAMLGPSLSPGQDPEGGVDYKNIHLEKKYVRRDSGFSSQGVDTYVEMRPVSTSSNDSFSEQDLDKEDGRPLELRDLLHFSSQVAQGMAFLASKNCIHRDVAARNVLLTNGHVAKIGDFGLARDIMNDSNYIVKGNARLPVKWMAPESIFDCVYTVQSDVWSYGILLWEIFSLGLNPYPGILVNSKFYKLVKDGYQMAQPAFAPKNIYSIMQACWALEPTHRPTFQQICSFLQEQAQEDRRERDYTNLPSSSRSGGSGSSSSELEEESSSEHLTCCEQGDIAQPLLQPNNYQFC
Settings: not given
On the set-up: THP-1 cells act as a model for human monocytes; endogenous in cells; host or cells: THP-1. The procedure, abridged: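 THP-1 cells (2×10^5/well, RPMI/10% FBS) were treated with compound, 10 doses in 3-fold steps, for 24 h at 37 °C in 0.2% DMSO final. They were then stimulated 5 min with human M-CSF (10 ng/ml final) and lysed. p-CSF1R was read by sandwich ELISA (HRP/TMB), with a sigmoidal dose-response fit.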
Background: In an ELISA, binding on a coated surface is turned into a signal by an enzyme label.
Turning to `COc1cc2nccc(Oc3ccc(NC(=O)c4nn(C5CC5)cc4OCC(F)(F)F)nc3)c2cc1OC` [Compound 5], the IC50 was below 0.5 µM. The same measure, in the same setting: the same measure for `COc1cc2nccc(Oc3ccc(NC(=O)c4nn(C5CCOC5)cc4OCC(F)(F)F)c(F)c3)c2cc1OC` (centres unmarked) [Compound 77]: at least 1 µM; for `COc1cc2nccc(Oc3ccc(NC(=O)c4nn(C5CCNC5)cc4OCC(F)(F)F)cc3F)c2cc1OC` (centres unmarked) [Compound 78]: at least 1 µM.

In turn, `COc1cc2nccc(Oc3ccc(NC(=O)c4nn(CCN)cc4OCC(F)(F)F)cc3F)c2cc1OC` [Compound 79] came in with an IC50 of at least 1 µM.

As to `COc1cc2nccc(Oc3ccc(NC(=O)c4nn(CC(C)O)cc4OCC(F)(F)F)cc3F)c2cc1OC` (centres unmarked) [Compound 80], the IC50 was at least 1 µM. Regarding `COc1cc2nccc(Oc3ccc(NC(=O)c4nn(C5CCNC5)cc4OCC(F)(F)F)cc3C)c2cc1OC` (centres unmarked) [Compound 81], the IC50 was at least 1 µM. Compound `COc1cc2nccc(Oc3ccc(NC(=O)c4nn(CCN)cc4OCC(F)(F)F)cc3C)c2cc1OC` [Compound 82] yielded an IC50 of at least 1 µM. For `COc1cc2nccc(Oc3ccc(NC(=O)c4nn(CC(C)O)cc4OCC(F)(F)F)cc3C)c2cc1OC` (centres unmarked) [Compound 83], the IC50 is below 0.5 µM. Compound `COCCn1cc(OCC(F)(F)F)c(C(=O)Nc2ccc(Oc3ccnc4cc(OC)c(OC)cc34)c(C)c2)n1` [Compound 84] yielded an IC50 of 0.5 to 1 µM. Turning to `COc1cc2nccc(Oc3ccc(NC(=O)c4nn(C5CCOC5)cc4OCC(F)(F)F)cc3C)c2cc1OC` (centres unmarked) [Compound 85], the IC50 was in the range of 0.5 to 1 µM.

Compound `COc1cc2nccc(Oc3ccc(NC(=O)c4nn(C5CCNC5)cc4OCC(F)(F)F)cc3)c2cc1OC` (centres unmarked) [Compound 86] returned an IC50 of at least 1 µM. The same measure, in the same setting: to `COc1cc2nccc(Oc3ccc(NC(=O)c4nn(CC(C)C)cc4OCC(F)(F)F)cc3)c2cc1OC` [Compound 87] belongs 0.5 to 1 µM.

`COc1cc2nccc(Oc3ccc(NC(=O)c4nn(CCN)cc4OCC(F)(F)F)cc3)c2cc1OC` [Compound 88] gave an IC50 of at least 1 µM. Regarding `COc1cc2nccc(Oc3ccc(NC(=O)c4nn(CC(C)O)cc4OCC(F)(F)F)cc3)c2cc1OC` (centres unmarked) [Compound 89], the IC50 lay in the range of 0.5 to 1 µM. `COc1cc2nccc(Oc3ccc(NC(=O)c4nn(C5CCOCC5)cc4OCC(F)(F)F)nc3)c2cc1OC` [Compound 90] yielded an IC50 below 0.5 µM. The same measure, in the same setting: to `COc1cc2nccc(Oc3ccc(NC(=O)c4nn(C5CCN(C)C5)cc4OCC(F)(F)F)nc3)c2cc1OC` (centres unmarked) [Compound 91] belongs below 0.5 µM; to `COc1cc2nccc(Oc3ccc(NC(=O)c4nn(CCC5CCCC5)cc4OCC(F)(F)F)nc3)c2cc1OC` [Compound 93], below 0.5 µM; to `COc1cc2nccc(Oc3ccc(NC(=O)c4nn(C5CCN(C)C5)cc4OCC(F)(F)F)c(F)c3)c2cc1OC` (centres unmarked) [Compound 94], at least 1 µM.

`COc1cc2nccc(Oc3ccc(NC(=O)c4nn(CC5COC5)cc4OCC(F)(F)F)c(F)c3)c2cc1OC` [Compound 95] gave a half-maximal inhibitory concentration (IC50) of at least 1 µM.

As a reminder, the IC50 is the concentration at which inhibition is half-maximal.
